Results as given in patent publication US20050250725A1, “Regulation of the P21 gene and uses thereof” (priority 2000, published 2005).

What was measured:
[1] = system: renal cells; type: cell-based
Description: Percent apoptosis is also indicated.
Next, the cytoprotective effect of histone deacetylase inhibitors such as phenylbutyrate on renal cells was examined. Cells were control cells, or exposed to cisplatin (50 uM) alone, to phenylbutyrate (100 uM) or to phenybutyrate and cisplatin.

[2] = system: renal p21 expression; experiment: Renal p21 expression after cisplatin administration; type: in vivo
Description: The present invention examined the effect of p21 in protecting the renal function from cisplatin induced damage. An increase in renal p21 expression was observed after ischemia-reperfusion, urinary tract obstruction and cisplatin administration (FIG. 7). Further, to assess the significance of p21 in renal function, blood urea nitrogen was measured in mice with and without p21 gene subsequent to cisplatin administration. It was observed that the blood urea nitrogen for mice lacking the p21 gene was retained to a higher degree than the mice with p21 gene (FIG. 8).

Compound: phenylbutyrate
- protection from cisplatin-induced apoptosis ([1]; prior exposure to phenylbutyrate, then cisplatin): protected from apoptosis
- distribution of DNA ([1]; renal cells exposed to phenylbutyrate 100 uM and cisplatin 50 uM): normal distribution of DNA

Compound: N.N.[Cl][Pt][Cl] [cisplatin]
- renal p21 expression [2]: increase
